Where “and” joins values, the source holds several entries; their conditions need not be identical. Identical values can stand only once. Inconclusive results and toxic doses are left out. The calls were made as follows: active = survival T/C of 150% or more; inactive = T/C below 125% in these data.
System: BDF1 mice, P388 leukemia ip, median survival T/C
Assay: NCI In Vivo Anticancer Drug Screen. Data for tumor model P388 Leukemia (intraperitoneal) in B6D2F1 (BDF1) mice
Conditions: endpoint: median survival time, higher = longer survival
Procedure, shortened: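 Survival ratio, drug arm over vehicle arm, in mice with a transplanted tumour.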

[1] = dose: 50.0 mg/kg/injection, schedule: Q01DX009 (ip), vehicle: saline with Tween-80
[2] = dose: 100.0 mg/kg/injection, schedule: Q01DX009 (ip), vehicle: saline with Tween-80
[3] = dose: 200.0 mg/kg/injection, schedule: Q01DX009 (ip), vehicle: saline with Tween-80
[4] = dose: 100.0 mg/kg/injection, schedule: Q04DX003 (ip), vehicle: saline with Tween-80
[5] = dose: 200.0 mg/kg/injection, schedule: Q04DX003 (ip), vehicle: saline with Tween-80
[6] = dose: 400.0 mg/kg/injection, schedule: Q04DX003 (ip), vehicle: saline with Tween-80
[7] = dose: 50.0 mg/kg/injection, schedule: Q01DX010 (ip), vehicle: saline
[8] = dose: 100.0 mg/kg/injection, schedule: Q01DX010 (ip), vehicle: saline
[9] = dose: 100.0 mg/kg/injection, schedule: Q01DX009 (ip), vehicle: saline
[10] = dose: 6.25 mg/kg/injection, schedule: Q01DX009 (ip), vehicle: saline with Tween-80
[11] = dose: 12.5 mg/kg/injection, schedule: Q01DX009 (ip), vehicle: saline with Tween-80
[12] = dose: 25.0 mg/kg/injection, schedule: Q01DX009 (ip), vehicle: saline with Tween-80
[13] = dose: 25.0 mg/kg/injection, schedule: Q04DX003 (ip), vehicle: saline with Tween-80
[14] = dose: 50.0 mg/kg/injection, schedule: Q04DX003 (ip), vehicle: saline with Tween-80

Measured: T/C

CN(C)CNc1ncnc2onc(-c3ccccc3)c12
inactive: dose: 50.0 mg/kg/injection, schedule: Q01DX009 (ip), vehicle: other 100 % of control | dose: 100.0 mg/kg/injection, schedule: Q01DX009 (ip), vehicle: other 102 % of control

CCC[CH2][Sn]([CH2]CCC)([CH2]CCC)[S]C(=S)NCCNC(=S)[S][Sn]([CH2]CCC)([CH2]CCC)[CH2]CCC
inactive: dose: 0.78 mg/kg/injection, schedule: Q01DX010 (ip), vehicle: saline 113 % of control | dose: 1.56 mg/kg/injection, schedule: Q01DX010 (ip), vehicle: saline 109 % of control | dose: 3.13 mg/kg/injection, schedule: Q01DX010 (ip), vehicle: saline 109 % of control

CCCCn1c2nc(=O)[nH]c(=O)c-2[n+]([O-])c2ccccc21
inactive: dose: 100.0 mg/kg/injection, schedule: Q01DX001 (ip), vehicle: saline with Tween-80 108 % of control

c1cc2c3c(cccc3c1)N1C(=N2)Sc2nc3ccccc3nc21
inactive: [1] 89 % of control | [2] 89 % of control | [3] 95 % of control

CCCC(=O)Oc1ccc2c(C)cc(=O)oc2c1
inactive: [4] 104 % of control | [5] 90 % of control | [6] 100 % of control

CS(=O)(=O)N(CC(=O)O)Cc1ccc(Cl)c(Cl)c1
inactive: dose: 25.0 mg/kg/injection, schedule: Q04DX003 (ip), vehicle: other 102 % of control | dose: 50.0 mg/kg/injection, schedule: Q04DX003 (ip), vehicle: other 102 % of control | dose: 100.0 mg/kg/injection, schedule: Q04DX003 (ip), vehicle: other 93 % of control | dose: 200.0 mg/kg/injection, schedule: Q04DX003 (ip), vehicle: other 106 % of control and 107 % of control | dose: 300.0 mg/kg/injection, schedule: Q04DX003 (ip), vehicle: other 95 % of control

O=c1c2ccccc2ncn1-c1ccc(Cl)cc1
inactive: [1] 97 % of control | [2] 100 % of control | [3] 100 % of control

COc1cc(-c2cc(=O)c3c(OC)c(OC)c(OC)c(OC)c3o2)cc2c1OCO2
inactive: dose: 100.0 mg/kg/injection, schedule: Q04DX002 (ip), vehicle: Klucel (hydroxypropylcellulose) (HPC) 97 % of control | dose: 200.0 mg/kg/injection, schedule: Q04DX002 (ip), vehicle: Klucel (hydroxypropylcellulose) (HPC) 103 % of control | dose: 400.0 mg/kg/injection, schedule: Q04DX002 (ip), vehicle: Klucel (hydroxypropylcellulose) (HPC) 97 % of control

O=C1c2ccccc2CCC12OC2c1ccc(Cl)cc1 (stereo not drawn)
inactive: dose: 100.0 mg/kg/injection, schedule: Q01DX001 (ip), vehicle: Klucel (hydroxypropylcellulose) (HPC) 95 % of control | dose: 100.0 mg/kg/injection, schedule: Q04DX003 (ip), vehicle: Klucel (hydroxypropylcellulose) (HPC) 100 % of control | [4] 91 % of control | dose: 200.0 mg/kg/injection, schedule: Q01DX001 (ip), vehicle: Klucel (hydroxypropylcellulose) (HPC) 100 % of control | dose: 200.0 mg/kg/injection, schedule: Q04DX003 (ip), vehicle: Klucel (hydroxypropylcellulose) (HPC) 104 % of control | [5] 104 % of control | dose: 400.0 mg/kg/injection, schedule: Q01DX001 (ip), vehicle: Klucel (hydroxypropylcellulose) (HPC) 90 % of control | dose: 400.0 mg/kg/injection, schedule: Q04DX003 (ip), vehicle: Klucel (hydroxypropylcellulose) (HPC) 104 % of control | [6] 95 % of control

OCc1cnc[nH]1
inactive: dose: 6.25 mg/kg/injection, schedule: Q01DX009 (ip), vehicle: Klucel (hydroxypropylcellulose) (HPC) 96 % of control | dose: 12.5 mg/kg/injection, schedule: Q01DX009 (ip), vehicle: Klucel (hydroxypropylcellulose) (HPC) 91 % of control | dose: 25.0 mg/kg/injection, schedule: Q01DX009 (ip), vehicle: Klucel (hydroxypropylcellulose) (HPC) 90 % of control | dose: 50.0 mg/kg/injection, schedule: Q01DX009 (ip), vehicle: Klucel (hydroxypropylcellulose) (HPC) 99 % of control

COc1cc(-c2ccc(Nc3ccccc3C(=O)O)c(OC)c2)ccc1Nc1ccccc1C(=O)O
active: [7] 166 % of control | [8] 158 % of control

CCN(CC)CCNc1ccc(C)c2sc3ccccc3c(=O)c12
active: [7] 150 % of control and 170 % of control | [9] 158 % of control
inactive: dose: 12.5 mg/kg/injection, schedule: Q01DX009 (ip), vehicle: saline 97 % of control | dose: 25.0 mg/kg/injection, schedule: Q01DX009 (ip), vehicle: saline 109 % of control | [8] 90 % of control

CCCCOCN(COCCCC)c1ncccn1
inactive: [1] 108 % of control | [2] 106 % of control | [3] 104 % of control

FC(F)(F)COP1SCCS1
inactive: dose: 25.0 mg/kg/injection, schedule: Q01DX005 (ip), vehicle: saline with Tween-80 97 % of control | dose: 50.0 mg/kg/injection, schedule: Q01DX005 (ip), vehicle: saline with Tween-80 97 % of control

O=CNc1ccc(/C=C\c2ccnc3ccccc23)cc1
inactive: dose: 3.13 mg/kg/injection, schedule: Q01DX009 (ip), vehicle: saline with Tween-80 111 % of control | [10] 106 % of control | [11] 103 % of control | [1] 94 % of control | [2] 86 % of control | [3] 91 % of control

CCN(CC)CCOc1cc(C)ccc1C(C)C
inactive: [12] 96 % of control | [13] 109 % of control | [1] 111 % of control | [14] 109 % of control | [2] 107 % of control | [4] 118 % of control

COc1cc2ccc3c(c2cc1OC)C=NCC3
inactive: dose: 1.56 mg/kg/injection, schedule: Q01DX009 (ip), vehicle: saline 100 % of control | dose: 1.56 mg/kg/injection, schedule: Q04DX003 (ip), vehicle: saline 95 % of control | dose: 3.13 mg/kg/injection, schedule: Q01DX009 (ip), vehicle: saline 110 % of control | dose: 3.13 mg/kg/injection, schedule: Q04DX003 (ip), vehicle: saline 100 % of control | dose: 6.25 mg/kg/injection, schedule: Q01DX009 (ip), vehicle: saline 110 % of control | dose: 6.25 mg/kg/injection, schedule: Q04DX003 (ip), vehicle: saline 104 % of control

COc1cc2c(cc1OC)[C@]13C[C@@H](OC)CC=C1CCN3CCC2
inactive: dose: 5.0 mg/kg/injection, schedule: Q01DX009 (ip), vehicle: alcohol 100 % of control | dose: 10.0 mg/kg/injection, schedule: Q01DX009 (ip), vehicle: alcohol 95 % of control | dose: 20.0 mg/kg/injection, schedule: Q01DX009 (ip), vehicle: alcohol 90 % of control | dose: 40.0 mg/kg/injection, schedule: Q01DX009 (ip), vehicle: alcohol 90 % of control

CN1C(=O)NC(C)(c2cccs2)C1=O (stereo not drawn)
inactive: [14] 96 % of control | [4] 101 % of control | [5] 100 % of control | [6] 94 % of control

COc1ccc2c(c1)CC(=CO)CC2=O.COc1ccc2c(c1)CC/C(=C/O)C2=O.[Cu]
inactive: [13] 100 % of control | [14] 110 % of control | [4] 90 % of control

O=[N+]([O-])c1ccc(N/N=C/CC(O)CO)c([N+](=O)[O-])c1 (stereo not drawn)
inactive: [9] 100 % of control | dose: 200.0 mg/kg/injection, schedule: Q01DX009 (ip), vehicle: saline 120 % of control

CC(=O)Nc1ccc(S(=O)(=O)N/N=C\c2ccc(Cl)c(Cl)c2)cc1
inactive: [10] 99 % of control | [11] 98 % of control | [12] 96 % of control

CC[N+](CC)(CC)CCCCCCCCCC[N+](CC)(CC)CC
inactive: dose: 0.25 mg/kg/injection, schedule: Q01DX009 (ip), vehicle: water 91 % of control | dose: 0.39 mg/kg/injection, schedule: Q04DX003 (ip), vehicle: water 102 % of control and 107 % of control | dose: 0.5 mg/kg/injection, schedule: Q01DX009 (ip), vehicle: water 112 % of control | dose: 0.5 mg/kg/injection, schedule: Q04DX003 (ip), vehicle: saline with Tween-80 92 % of control | dose: 0.78 mg/kg/injection, schedule: Q04DX003 (ip), vehicle: saline with Tween-80 100 % of control | dose: 0.78 mg/kg/injection, schedule: Q04DX003 (ip), vehicle: water 98 % of control and 120 % of control | dose: 1.0 mg/kg/injection, schedule: Q01DX009 (ip), vehicle: water 91 % of control and 105 % of control | dose: 1.0 mg/kg/injection, schedule: Q04DX003 (ip), vehicle: saline with Tween-80 92 % of control | dose: 1.56 mg/kg/injection, schedule: Q04DX003 (ip), vehicle: water 95 % of control and 104 % of control

COc1cc2c(c(OC)c1OC)-c1ccc(N)c(=O)cc1[C@@H](NC(C)=O)CC2
inactive: dose: 0.5 mg/kg/injection, schedule: Q01DX010 (ip), vehicle: saline 113 % of control | dose: 2.0 mg/kg/injection, schedule: Q01DX010 (ip), vehicle: saline 118 % of control
